assay: gradient 5% acetonitrile 3 min, to 50% in 2 min, to 85% in 15 min, held 3 min, 100 µL/min; details: column: Zorbax Extend-C18 2.1 x 50 mm; eluents: water / acetonitrile, 0.1% formic acid
Outline: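 Pure standards were run in mixtures of ~100 molecules by HPLC coupled to a quadrupole time-of-flight mass spectrometer. The column was a Zorbax Extend-C18 (2.1 × 50 mm, 1.8 μm) at 100 μL/min, with water and acetonitrile each containing 0.1% formic acid, in positive and negative ionization mode. Dead and dwell volumes were 40 μL and 900 μL. Retention time was taken from computationally picked adduct peaks, each manually inspected, with data collected over 3 months.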

Structure (SMILES)	RP-LC retention time
O=C(Cc1ccc2ccccc2c1)Nc1nnc(-c2ccno2)o1	558 s
O=C(NCCCn1cccn1)c1c(OCC2CC2)cc(=O)n2c1CCCCC2	634 s
CC(C)CN(Cc1cccnc1)C1CN(S(=O)(=O)c2cn(C)cn2)C1	591 s
COC(=O)c1c(NC(=O)CCc2ccc(C)o2)sc(C)c1C	1110 s
O=C(NC1CC1)c1ccc(N2CCC(NCc3ccc(Cl)cc3)C2)nc1 (stereo not given)	574 s
CCn1cc(-c2nc(C)c(C(=O)Nc3ccccc3F)s2)c2cccnc21	1000 s
Cc1nc(-c2ccc3c(c2)n(CC(=O)NCCC2=CCCCC2)c(=O)n3C(C)C)no1	915 s
Cc1ccc(-c2csc(Cc3nc(-c4ccc5c(c4)OCO5)no3)n2)cc1C	1280 s
CCc1nnc(-c2cc(C)n(CC(=O)Nc3cc(C)ccc3C)c2C)o1	789 s
CCCCCC(=O)Nc1cc(-c2nc3ccc(C)cc3[nH]2)ccc1C	750 s
Cc1nnc2c(=O)n(CC(=O)NCc3ccccc3)c3cccnc3n12	654 s
CN1CCN(C(=O)C2CCCN(c3ncnc4c3nc3n4CCCCC3)C2)CC1 (stereo not given)	570 s
O=C(NC1CCCC1)C1CCCN(C(=O)c2ccc(F)c(F)c2)C1 (stereo not given)	763 s
Cc1[nH]c(=O)[nH]c(=O)c1CCC(=O)Nc1ccccc1C(N)=O	547 s
COc1ccc(-c2nc(Cn3c(=O)c4c(C)cc(C)nc4n(C)c3=O)c(C)o2)cc1	1200 s
CCC(C)(C)NS(=O)(=O)c1ccc(-c2c(C)noc2C)cc1	939 s
CC1CCC(NC(=O)CN2C(=O)CCCc3cc(S(=O)(=O)N4CCC(C)CC4)ccc32)CC1 (stereo not given)	1040 s
CCCN(CCC)CCNC(=O)C1CCCN(c2ncnc3c2nc2n3CCCCC2)C1 (stereo not given)	599 s
O=C(NCc1ccccc1F)c1sc2ncccc2c1-n1cccc1	961 s
CCN(CC)CCNC(=O)C1c2ccccc2Oc2ccccc21	655 s
N#Cc1cccc2sc(C(=O)N=C(N)N)cc12	625 s
Cc1ccn2c(NC(=O)c3ccccc3)c(-c3ccccc3)nc2c1	646 s
CCn1c(=O)oc2cc(-c3noc(-c4cc(Cl)ccc4F)n3)ccc21	1180 s
Cn1cc(-c2cc3n(n2)CCC(=O)N3CCCC(=O)Nc2ccc(F)cc2F)c2ccccc21	860 s
O=C(Cn1c(-c2cccnc2)nc2ccccc21)Nc1ccc(OC(F)(F)F)cc1	853 s
Cn1c(=O)c2cc(C(=O)Nc3ccc4c(c3)OCCO4)cnc2n(-c2ccccc2)c1=O	842 s
COc1ccc(NS(=O)(=O)c2cc(-c3cc(C(F)(F)F)on3)sc2C)cc1Cl	1140 s

Structure (SMILES)	RP-LC retention time
CN(CC#N)C(=O)c1nn(C)c2c1COc1ccccc1-2	834 s
CSc1ccc(-c2noc(Cn3ncn4nc(-c5ccc(C)cc5C)cc4c3=O)n2)cc1	1270 s
COc1ccc(-c2ncc(C(=O)Nc3ccc(OC)c(Cl)c3)c(-c3ccncc3)n2)cc1	902 s
CCCn1ccc2sc(C)c(C(=O)NCc3ccc(F)cc3Cl)c2c1=O	1000 s
ClCC(CNCc1ccccc1)c1ccccc1 (stereo not given)	723 s
O=C(CS(=O)Cc1ccco1)NC/C=C\COc1cc(CN2CCCCC2)ccn1 (stereo not given)	632 s
Cc1cccc(Nc2nc(C(=O)NCc3ccc(C)o3)nc3ccccc23)c1	856 s
CCOc1ccccc1-c1noc(Cn2ncn3nc(-c4ccc(F)cc4)cc3c2=O)n1	1080 s
Cn1c(CCNC(=O)c2cccc(C(F)(F)F)c2)nc2cccnc21	664 s
Cc1c(Cl)cccc1Nc1c(-c2ccc(N(C)C)cc2)nc2cnccn12	961 s
Cn1cc(SCC(=O)Nc2cccc(F)c2)c2ccccc21	896 s
O=C(CSc1ccc(N2CCCC(C(=O)NC3CC3)C2)nn1)Nc1ccc2c(c1)OCCO2 (stereo not given)	619 s
COc1ccc2[nH]cc(CCNC(=O)CCC(=O)N3Cc4cccn4-c4ccccc43)c2c1	850 s
O=c1c2ccccc2n(Cc2nc(-c3ccc(Cl)cc3)no2)c(=O)n1CC1CCCO1 (stereo not given)	1080 s
CC(=O)Nc1ccc(C(=O)NCCNC(=O)CC(c2ccccc2)c2ccccc2)cc1	697 s
Cn1ncc2c3ccccc3n(CCCC(=O)NCCc3ccco3)c2c1=O	775 s
C=CCNC(=O)c1cnn(-c2ccc(-c3nc(C(C)C)no3)cn2)c1C	903 s
COc1ccc(-c2nnc(-c3cccnc3NCc3ccc(N(C)C)cc3)o2)cc1	873 s
CC(C)CNC(=O)NCCC1CCN(S(=O)(=O)c2ccccc2)CC1	808 s
CCCn1cc(CCNC(=O)Nc2ccc(C)c(Cl)c2)c2cccnc21	884 s
COCCCn1c(=O)c2ccccc2n(Cc2nc(-c3ccccc3C)no2)c1=O	1020 s
Cn1c(=O)c(=O)n(C)c2cc(N3CCCCC3)c(NC(=O)CN3CCCC3)cc21	599 s
Cc1nnc(-c2cn(CC(=O)Nc3cccc(Br)c3)c3ccccc23)o1	893 s
CCc1c(C(=O)O)nnn1Cc1ccccc1	701 s
Cc1cccc(NC(=O)N2CC(N(C3CCOCC3)S(C)(=O)=O)C2)c1	706 s
NC1CCN(O)C1=O (stereo not given)	621 s

Next, values leading:

RP-LC retention time	Structure (SMILES)
1010 s	COc1ccc(-c2nc3n(c2C(=O)Nc2nc(-c4ccccc4)cs2)CCS3(=O)=O)cc1
762 s	COc1cccc(CC(=O)Nc2ccc3c(c2)Sc2ncccc2C(=O)N3C)c1
1030 s	Cn1ncc2c(N3CCCCC3)nc(C(=O)N3CCN(c4ccccc4Cl)CC3)nc21
624 s	Cc1cc(C(=O)N2CCC3(CC2)CC(O)CCO3)c(C)o1 (stereo not given)
982 s	COc1cc(OC)c(NC(=O)c2[nH]c(C)c(S(=O)(=O)N3CCCC3)c2C)cc1Cl
933 s	Cc1ccccc1-c1nnc(CSc2ccc(NC(=O)C3CC3)cc2)o1
696 s	Cc1ccc(-c2cc(N3CCN(C(=O)c4ccccc4Br)CC3)ncn2)cc1
860 s	Cc1ccc(S(=O)(=O)N2CCc3nc(NC(=O)c4ccnn4C)sc3C2)cc1
1150 s	COC(=O)c1ccc2c(=O)n(-c3cccc(F)c3)c(N3CCCCC3)nc2c1
1030 s	CC1(C(=O)NCc2ccc(F)cc2)CCCN(C(=O)Nc2ccc(Br)cc2F)C1 (stereo not given)
664 s	CCOC(=O)C1CCN(C(=O)c2nc3ccccn3c2-c2ccsc2)CC1
640 s	Cc1n[nH]c(C)c1S(=O)(=O)Nc1ccc(CC(=O)NCc2cccs2)cc1
1020 s	Cc1cc(C)cc(NC(=O)C2CCN(S(C)(=O)=O)c3cc(Cl)ccc3O2)c1 (stereo not given)
560 s	CN1CCCC1c1nc(C2CN(C(=O)c3n[nH]c(=O)c4ccccc34)C2)no1 (stereo not given)
666 s	O=C(Nc1ccc2c(c1)OCCO2)C1CCN(c2cnc3nccnc3c2)CC1
846 s	O=c1ccc(N2CCCN(S(=O)(=O)c3ccc(F)cc3)CC2)nn1-c1ccccc1
685 s	CC(Oc1ccccc1)C(=O)N(C)CC1(C)CCOCC1 (stereo not given)
600 s	CCOC(=O)c1cc2ccsc2n1CC(=O)NCCN1CCN(C)CC1
597 s	COC1CCC12CCN(Cc1cccc(C#N)c1)CC2 (stereo not given)

RP-LC retention time	Structure (SMILES)
1390 s	CC(=O)N1c2nc(-c3ccccc3)nn2C2(CCCCC2)[C@@H]2CCCC[C@@H]21
625 s	Cc1ccc(NC(=O)CN2C(=O)COc3ccc(C(=O)N4CCCC4)cc32)nc1
769 s	COc1cccc(N2CCN(c3cc(SCC(=O)NCC4CCCO4)ncn3)CC2)c1 (stereo not given)
1150 s	CCc1ccc(Oc2cc(N3CCC(C(=O)NCCC4=CCCCC4)CC3)ncn2)cc1
649 s	COc1ccc(CN2CCOC2=O)cc1OC
836 s	CC(C)CCN1CC(=O)N(Cc2ccc(N3CCOCC3)cc2)C(c2cccs2)C1=O (stereo not given)
594 s	CN1CCC(N2CCN(S(=O)(=O)c3ccccc3C(F)(F)F)CC2)C1=O (stereo not given)
658 s	CCOc1ccccc1NC(=O)N1CCN(c2cnn3c(C)nnc3c2)CC1
835 s	COc1cccc2c1OC1(CCN(C(C)=O)CC1)N1N=C(c3cccs3)CC21 (stereo not given)
965 s	Cc1ccc(-c2cc(C(=O)N3CCCC3)n(C)c2)cc1
627 s	O=C(c1ccccc1Br)N1CCN(c2nc(CN3CCCC3)cs2)CC1
886 s	CCOC(=O)c1nc(Nc2ccc(OC)c(Cl)c2)c2ccccc2n1
703 s	COc1ccc(C(=O)N2CC(C(=O)NC3CC3)C(c3ccc(OC)cc3OC)C2)cc1 (stereo not given)
577 s	COc1ccc(NC(=O)N2CCN(c3cnn4c(C)nnc4c3)CC2)cc1OC
855 s	COc1cc2c(cc1CNC(=O)c1ccc3c(c1)CC(C)O3)OCCCO2 (stereo not given)
978 s	Cc1ccc(NC(=O)N2CCCC(C)(C(=O)NCc3ccccc3C)C2)cc1C (stereo not given)
736 s	Cn1c(N2CCCC(C(=O)NCCCc3ccccc3)C2)cc(=O)n(C)c1=O (stereo not given)
610 s	Cc1[nH]c(C(=O)N2CCCC(C(=O)NCc3ccc(Cl)cc3)C2)c(C)c1C(=O)OC(C)C (stereo not given)

Reference: the METLIN SMRT retention time set (Domingo-Almenara et al. 2019)
